Experimental data taken from US12302908B2, “Insect neuropeptides 4” (Solasta Bio Limited, priority 2023, dated 2025).

How the values were obtained:
Plutella xylostella [1] = experiment: Leaf dip assay 1 (IRAC susceptibility test method 018, performed by FERA), mortality; assay type: in vivo; conditions: unformulated peptide at 2×10^−4 M; 2nd/3rd instar larvae on dipped Chinese cabbage leaf discs; mortality assessed after 120 hours; FIG. 4
Procedure: The assay was carried out based on IRAC susceptibility test method 018 by a contract research organization, FERA Science Ltd. Test insects Larvae (2nd/3rd instar) were sourced from a laboratory culture of P. xylostella. The culture has been maintained in a controlled environment (CE) room with conditions of 25° C. and 16:8 lighting regime on Chinese cabbage plants. Chinese cabbage leaves were used in the bioassays. A CE room set at 25° C. and 60% r.h. with a 16 hour light: 8 hours dark lighting regime, was used. Leaf discs (approximately 35 mm in diameter) were cut from fully expanded Chinese cabbage leaves. Each leaf disc was dipped in a separate peptide solution for 10 seconds with gentle agitation and placed on a damp filter paper (underside surface uppermost). There were ten replicates for each treatment and control, with five leaf discs per replicate. The treated discs were then put onto damp filter paper in the base of a Petri dishes (90 mm in diameter, 15 mm high) (underside surface uppermost). Five larvae were then transferred onto the treated leaf discs. The dishes were placed in the CE room and mortality was assessed after 120 hours. Leaf dip assays were performed with SB—P-81, and compared to a negative control vehicle and a current commercial insecticide Gazelle SG (shown as Acetamiprid). […]

Plutella xylostella [2] = experiment: Leaf dip assay 2 (IRAC susceptibility test method 019), mortality; assay type: in vivo; conditions: unformulated peptide at 1×10^−4 M; dipped leaf disc on agar; after 96 hours; FIG. 6
Procedure: The assay was carried out based on IRAC susceptibility test method 019 (irac-online.org/methods/aphids-adultnymphs/). Fill a small 4 cm wide 3 cm high dish with a 1% agar treatment solution of the active chemical or control (ensuring 1 cm gap between the agar and the lid) and leave to set. Dip a 2.5 cm leaf disc into 3 ml of treatment solution allowing the treatment to coat the leaf. Leave the disc to dry for 1 hour and place onto the set agar. Place insects (Plutella xylostella) onto each of the leaf discs. Each unit is sealed with a close-fitting, ventilated lid. Place the agar dishes in a small plastic tray lined with moist tissue paper and ensure the water trays in the bottom of the incubator are filled with clean water and place within the incubator. An assessment of mortality is made at 72, 96 and 120 hours. Leaf dip assays were performed with SB—P-81, and compared to a negative control vehicle and a current commercial insecticide Chlorantraniliprole. The activity of SB—P-81 is shown in FIG. 6; SB—P-81 has good activity whilst being eco-friendly and targeted to specific pests unlike broad spectrum chemical insecticides such as Chlorantraniliprole.

For “[Hy]-GGSMTFSPRL-[NH2] (H-GGSMTFSPRL-NH2) [SB—P-81, pyrokinin peptide according to the invention]”, the “activity against Plutella xylostella (mortality), leaf dip assay 1” value (Plutella xylostella [1]) was “good activity” and the “activity against Plutella xylostella (mortality), leaf dip assay 2” value (Plutella xylostella [2]) was “good activity”.
